Data published in ChEMBL document CHEMBL4308841, “Synthesis, in vitro antiproliferative activity, and kinase inhibitory effects of pyrazole-containing diarylureas and diarylamides” (Eur J Med Chem, 2018).

Key:
HCT-116 [1] = experiment: Growth inhibition of human HCT116 cells assessed as cell growth at 0.1 uM incubated for 48 hrs by sulforhodamine B assay relative to control; assay type: functional; conditions: HCT-116, 48 h, read-out: Activity
CCRF-CEM = experiment: Growth inhibition of human CCRF-CEM cells assessed as cell growth at 10 uM incubated for 48 hrs by sulforhodamine B assay relative to control; assay type: functional; conditions: read-out: Activity
HOP-62 = experiment: Growth inhibition of human HOP62 cells assessed as cell growth at 10 uM incubated for 48 hrs by sulforhodamine B assay relative to control; assay type: functional; conditions: HOP-62, 48 h, read-out: Activity
NCI/ADR-RES = experiment: Growth inhibition of human NCI/ADR-RES cells assessed as cell growth at 10 uM incubated for 48 hrs by sulforhodamine B assay relative to control; assay type: functional; conditions: read-out: Activity
SK-MEL-5 = experiment: Growth inhibition of human SK-MEL-5 cells assessed as cell growth at 10 uM incubated for 48 hrs by sulforhodamine B assay relative to control; assay type: functional; conditions: SK-MEL-5, 48 h, read-out: Activity
SF-268 = experiment: Growth inhibition of human SF268 cells assessed as cell growth at 0.1 uM incubated for 48 hrs by sulforhodamine B assay relative to control; assay type: functional; conditions: SF-268, 48 h, read-out: Activity
SK-MEL-28 = experiment: Growth inhibition of human SK-MEL-28 cells assessed as cell growth at 10 uM incubated for 48 hrs by sulforhodamine B assay relative to control; assay type: functional; conditions: SK-MEL-28, 48 h, read-out: Activity
MCF7 = experiment: Growth inhibition of human MCF7 cells assessed as cell growth at 10 uM incubated for 48 hrs by sulforhodamine B assay relative to control; assay type: functional; conditions: MCF7, 48 h, read-out: Activity
Malme-3M = experiment: Growth inhibition of human MALME-3M cells assessed as cell growth at 10 uM incubated for 48 hrs by sulforhodamine B assay relative to control; assay type: functional; conditions: read-out: Activity
OVCAR-8 = experiment: Growth inhibition of human OVCAR8 cells assessed as cell growth at 10 uM incubated for 48 hrs by sulforhodamine B assay relative to control; assay type: functional; conditions: OVCAR-8, 48 h, read-out: Activity
A549 = experiment: Growth inhibition of human A549/ATCC cells assessed as cell growth at 10 uM incubated for 48 hrs by sulforhodamine B assay relative to control; assay type: functional; conditions: A549, 48 h, read-out: Activity
HCT-116 [2] = experiment: Growth inhibition of human HCT116 cells assessed as cell growth at 0.01 uM incubated for 48 hrs by sulforhodamine B assay relative to control; assay type: functional; conditions: HCT-116, 48 h, read-out: Activity
COLO 205 = experiment: Growth inhibition of human COLO205 cells assessed as cell growth at 10 uM incubated for 48 hrs by sulforhodamine B assay relative to control; assay type: functional; conditions: COLO 205, 48 h, read-out: Activity
SR = experiment: Growth inhibition of human SR cells incubated for 48 hrs by sulforhodamine B assay; assay type: functional, cell-based
UACC-62 = experiment: Growth inhibition of human UACC62 cells assessed as cell growth at 0.01 uM incubated for 48 hrs by sulforhodamine B assay relative to control; assay type: functional; conditions: UACC-62, 48 h, read-out: Activity
T47D = experiment: Growth inhibition of human T47D cells incubated for 48 hrs by sulforhodamine B assay; assay type: functional, cell-based
HCT-15 = experiment: Growth inhibition of human HCT15 cells assessed as cell growth at 10 uM incubated for 48 hrs by sulforhodamine B assay relative to control; assay type: functional; conditions: HCT-15, 48 h, read-out: Activity
DU-145 = experiment: Growth inhibition of human DU145 cells assessed as cell growth at 10 uM incubated for 48 hrs by sulforhodamine B assay relative to control; assay type: functional; conditions: DU-145, 48 h, read-out: Activity
SN12C = experiment: Growth inhibition of human SN12C cells assessed as cell growth at 10 uM incubated for 48 hrs by sulforhodamine B assay relative to control; assay type: functional; conditions: read-out: Activity
MOLT-4 = experiment: Growth inhibition of human MOLT4 cells assessed as cell growth at 10 uM incubated for 48 hrs by sulforhodamine B assay relative to control; assay type: functional; conditions: MOLT-4, 48 h, read-out: Activity
NCI-H522 = experiment: Growth inhibition of human NCI-H522 cells incubated for 48 hrs by sulforhodamine B assay; assay type: functional, cell-based; conditions: NCI-H522, 48 h
UO-31 [3] = experiment: Growth inhibition of human UO31 cells assessed as cell growth at 10 uM incubated for 48 hrs by sulforhodamine B assay relative to control; assay type: functional; conditions: UO-31, 48 h, read-out: Activity
NCI-H23 = experiment: Growth inhibition of human NCI-H23 cells assessed as cell growth at 10 uM incubated for 48 hrs by sulforhodamine B assay relative to control; assay type: functional; conditions: NCI-H23, 48 h, read-out: Activity
A498 = experiment: Growth inhibition of human A498 cells assessed as cell growth at 10 uM incubated for 48 hrs by sulforhodamine B assay relative to control; assay type: functional; conditions: A498, 48 h, read-out: Activity
786-0 = experiment: Growth inhibition of human 786-0 cells assessed as cell growth at 10 uM incubated for 48 hrs by sulforhodamine B assay relative to control; assay type: functional; conditions: 786-0, 48 h, read-out: Activity
NCI-H322M = experiment: Growth inhibition of human NCI-H322M cells assessed as cell growth at 10 uM incubated for 48 hrs by sulforhodamine B assay relative to control; assay type: functional; conditions: read-out: Activity
PC-3 = experiment: Growth inhibition of human PC3 cells assessed as cell growth at 10 uM incubated for 48 hrs by sulforhodamine B assay relative to control; assay type: functional; conditions: PC-3, 48 h, read-out: Activity
SNB-75 = experiment: Growth inhibition of human SNB75 cells assessed as cell growth at 0.1 uM incubated for 48 hrs by sulforhodamine B assay relative to control; assay type: functional; conditions: SNB-75, 48 h, read-out: Activity
UO-31 [4] = experiment: Growth inhibition of human UO31 cells assessed as cell growth at 0.01 uM incubated for 48 hrs by sulforhodamine B assay relative to control; assay type: functional; conditions: UO-31, 48 h, read-out: Activity
Hs-578T = experiment: Growth inhibition of human Hs578T cells assessed as cell growth at 0.1 uM incubated for 48 hrs by sulforhodamine B assay relative to control; assay type: functional; conditions: read-out: Activity
MDA-MB-435 = experiment: Growth inhibition of human MDA-MB-435 cells assessed as cell growth at 100 uM incubated for 48 hrs by sulforhodamine B assay relative to control; assay type: functional; conditions: MDA-MB-435, 48 h, read-out: Activity
UACC-257 = experiment: Growth inhibition of human UACC257 cells assessed as cell growth at 10 uM incubated for 48 hrs by sulforhodamine B assay relative to control; assay type: functional; conditions: UACC-257, 48 h, read-out: Activity
[5] = read-out: LC50 (the source's name)
[6] = read-out: pLC50 (the source's name) (converted)

For `COc1cc(Cl)cc(-c2nn(-c3cccc(NC(=O)Nc4ccc(Cl)c(C(F)(F)F)c4)c3)cc2-c2ccncc2)c1`, the growth at 0.1 µM (HCT-116 [1]) was 97%, the growth at 10 µM (CCRF-CEM) was 1.88% and the growth at 10 µM (HOP-62) was 13.5%. For the same compound, the growth at 10 µM (NCI/ADR-RES) was 6.07%, the growth at 10 µM (SK-MEL-5) was -71.2% and the growth at 0.1 µM (SF-268) was 90%. The growth at 10 µM (SK-MEL-28) was 23.6%, the growth at 10 µM (MCF7) was 2.57% and the growth at 10 µM (Malme-3M) was -19.8%. For the same compound, the growth at 10 µM (OVCAR-8) was 8.71%, the growth at 10 µM (A549) was 5.2% and the growth at 0.01 µM (HCT-116 [2]) was 104%. It also gave a growth at 10 µM (COLO 205) of -48.3%, a GI50 (SR; read-out: GI50) of 1.06 µM and a CC50 (SR; [5]) greater than 100 µM. For the same compound, the TGI (SR; read-out: TGI) was 43.8 µM, the GI50 (SR; read-out: pGI50 (converted)) was 1.07 µM and the CC50 (SR; [6]) was greater than 100 µM. The TGI (SR; read-out: pTGI (converted)) was 4.37 µM, the growth at 0.01 µM (UACC-62) was 95% and the GI50 (T47D; read-out: GI50) was 1.25 µM. For the same compound, the CC50 (T47D; [5]) was greater than 100 µM, the TGI (T47D; read-out: TGI) was 80.2 µM and the GI50 (T47D; read-out: pGI50 (converted)) was 1.26 µM. The CC50 (T47D; [6]) was greater than 100 µM, the TGI (T47D; read-out: pTGI (converted)) was 7.94 µM and the growth at 10 µM (HCT-15) was 7.28%. It also gave a growth at 10 µM (DU-145) of 15.2%, a growth at 10 µM (SN12C) of 13.8% and a growth at 10 µM (MOLT-4) of -9.68%. For the same compound, the GI50 (NCI-H522; read-out: GI50) was 0.418 µM, the CC50 (NCI-H522; [5]) was 9.74 µM and the TGI (NCI-H522; read-out: TGI) was 25 µM. The GI50 (NCI-H522; read-out: pGI50 (converted)) was 0.417 µM, the CC50 (NCI-H522; [6]) was 9.77 µM and the TGI (NCI-H522; read-out: pTGI (converted)) was 2.51 µM. For the same compound, the growth at 10 µM (UO-31 [3]) was 11.1%, the growth at 10 µM (NCI-H23) was 0.3% and the growth at 10 µM (A498) was -9.18%. For the same compound, the growth at 10 µM (786-0) was -4.76%, the growth at 10 µM (NCI-H322M) was 18.7% and the growth at 10 µM (PC-3) was -13%. It also gave a growth at 0.1 µM (SNB-75) of 52%, a growth at 0.01 µM (UO-31 [4]) of 91% and a growth at 0.1 µM (Hs-578T) of 90%. The growth at 100 µM (MDA-MB-435) was -40% and the growth at 10 µM (UACC-257) was -25.9%.

For `O=C(Nc1cccc(-n2cc(-c3ccncc3)c(-c3cc(O)cc(Cl)c3)n2)c1)c1cc(C(F)(F)F)cc(C(F)(F)F)c1`, the growth at 0.1 µM (HCT-116 [1]) was 100%, the growth at 10 µM (CCRF-CEM) was 26.9% and the growth at 10 µM (HOP-62) was 58.3%. For the same compound, the growth at 10 µM (NCI/ADR-RES) was 46.9%, the growth at 10 µM (SK-MEL-5) was 64.5% and the growth at 0.1 µM (SF-268) was 95%. For the same compound, the growth at 10 µM (SK-MEL-28) was 63.6%, the growth at 10 µM (MCF7) was 23% and the growth at 10 µM (Malme-3M) was 61.8%. It also gave a growth at 10 µM (OVCAR-8) of 39.6%, a growth at 10 µM (A549) of 27.3% and a growth at 0.01 µM (HCT-116 [2]) of 102%. For the same compound, the growth at 10 µM (COLO 205) was 38.7%, the GI50 (SR; read-out: GI50) was 1.51 µM and the CC50 (SR; [5]) was greater than 100 µM. For the same compound, the TGI (SR; read-out: TGI) was 50.1 µM, the GI50 (SR; read-out: pGI50 (converted)) was 1.62 µM and the CC50 (SR; [6]) was greater than 100 µM. It also gave a TGI (SR; read-out: pTGI (converted)) of 5.01 µM, a growth at 0.01 µM (UACC-62) of 90% and a GI50 (T47D; read-out: GI50) of 2.99 µM. The CC50 (T47D; [5]) was greater than 100 µM, the TGI (T47D; read-out: TGI) was 94.6 µM and the GI50 (T47D; read-out: pGI50 (converted)) was 3.02 µM. It also gave a CC50 (T47D; [6]) greater than 100 µM, a TGI (T47D; read-out: pTGI (converted)) of 95.5 µM and a growth at 10 µM (HCT-15) of 30.1%. The growth at 10 µM (DU-145) was 62.1%, the growth at 10 µM (SN12C) was 50.3% and the growth at 10 µM (MOLT-4) was 19.5%. It also gave a GI50 (NCI-H522; read-out: GI50) of 1.5 µM, a CC50 (NCI-H522; [5]) greater than 100 µM and a TGI (NCI-H522; read-out: TGI) of 83.7 µM. For the same compound, the GI50 (NCI-H522; read-out: pGI50 (converted)) was 1.58 µM, the CC50 (NCI-H522; [6]) was greater than 100 µM and the TGI (NCI-H522; read-out: pTGI (converted)) was 8.32 µM. The growth at 10 µM (UO-31 [3]) was 49.1%, the growth at 10 µM (NCI-H23) was 42.7% and the growth at 10 µM (A498) was 40.3%. The growth at 10 µM (786-0) was 55.1%, the growth at 10 µM (NCI-H322M) was 74.1% and the growth at 10 µM (PC-3) was 21.7%. The growth at 0.1 µM (SNB-75) was 87%, the growth at 0.01 µM (UO-31 [4]) was 57% and the growth at 0.1 µM (Hs-578T) was 92%. The growth at 100 µM (MDA-MB-435) was 3% and the growth at 10 µM (UACC-257) was 71%.
